Data reported in PubChem BioAssay (NCI).
Where “and” joins values, the source holds several entries; their conditions need not be identical. Equal values may be shown once.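 A five-concentration, 48-hour dose response in 96-well plates underlies each endpoint, interpolated linearly between surrounding concentrations. At the GI50, growth is halved. TGI marks complete inhibition of growth.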

system: UO-31 renal; assay: DTP human tumour cell line panel, 48 h

Row | Structure (SMILES) | GI50 | TGI
1 | CC(C)(C)[Si](C)(C)OC1[C@@H](O[Si](C)(C)C(C)(C)C)[C@@H](CNC(=O)NC(=O)C(F)(F)F)O[C@H]1n1cnc2c(NC(=O)Nc3ccccc3)ncnc21 (some centres not stated) | 7.68 µM | 15.6 µM
2 | CCOC(=O)n1cc(C2=C(c3ccc(OC)c(OC)c3)COC2=O)c2ccccc21 | 0.0632 µM | > 100 µM
3 | CC(=C(c1ccc(OCCN2CCCCC2)cc1)c1ccc(OCCN2CCCCC2)cc1)c1ccc(Cl)cc1 | 0.354 µM | 0.681 µM
4 | C=CC(=O)Nc1cc(Nc2nccc(-c3cn(C)c4ccccc34)n2)c(OC)cc1N(C)CCN(C)C | 0.604 µM and 0.444 µM | 4.09 µM and 2.08 µM
5 | C=C1C(=O)O[C@H]2[C@H]1CC/C(CNC(=O)c1cc3ccccc3[nH]1)=C\CC[C@@]1(C)O[C@@H]21 | 1.29 µM | 2.9 µM
6 | Cc1cc2c(cc1C)[n+](=O)c(C(=O)c1ccccc1)c(C(F)F)n2[O-] | 19.2 µM | > 100 µM
7 | COc1cc2c(cc1OC)C(Cl)C(c1ccc(F)cc1)=C2Cl (configuration not stated) | – | 33.3 µM
8 | CN(C)c1ccc(/C=N/NC(=S)Nc2ccccc2)cc1 | – | > 100 µM
9 | COc1ccc2ncnc(Nc3ccc(OCc4ccccc4)cc3)c2c1 | 3.62 µM | > 17 µM
10 | O=C1c2c(F)c(F)c(F)c(F)c2C(=O)N1c1ccc(F)cc1F | 10.5 µM | > 48 µM
11 | CC(C)[C@@H]1NC(=O)[C@]2(C)CSC(=N2)c2ccnc(c2)CNC(=O)C[C@@H](/C=C/CCS)OC1=O | 1.56 µM | 23.1 µM
12 | OC(c1cc(C(F)(F)F)nc2c(C(F)(F)F)cccc12)C1CCCCN1 (configuration not stated) | 2.63 µM | 12.3 µM
13 | COC(=O)/C=C/c1cc(OC(C)=O)c2c(c1)[C@@H](C(=O)OC)[C@H](c1ccc(OC(C)=O)c(OC(C)=O)c1)O2 | 0.131 µM | 38 µM

system: A498 renal; assay: DTP human tumour cell line panel, 48 h

Row | Structure (SMILES) | GI50 | TGI
14 | O=C1OCC2=C1C(c1cccc(Br)c1)c1cc3c(cc1N2CCO)OCCO3 (configuration not stated) | 0.0167 µM | 0.466 µM
15 | COc1cc(-c2nc3sccn3c2-c2ccnc(NCCNS(=O)(=O)c3ccc(F)cc3)n2)ccc1F | 2.4 µM | > 100 µM
16 | COc1cc(-c2nn(-c3cccc(NC(=O)c4ccccc4)c3)cc2-c2ccncc2)ccc1Cl | 0.197 µM | 1.35 µM
17 | Cc1cc(Nc2ccc(C)c(Cl)c2)n2nc(C(F)(F)F)nc2n1 | 8.61 µM | 53.5 µM
18 | COc1ccc(Cn2c(Br)c3c(c2Br)-c2nc(N)sc2CC3)cc1 | 4.66 µM | 17.3 µM
19 | O=C1CSC(=S)N1/N=C/c1ccc(Cl)c([N+](=O)[O-])c1 | – | > 100 µM
20 | CCOc1ccc(NC2=CC(=O)C(=O)c3ccccc32)cc1 | – | 12.2 µM
21 | COc1cc2c(cc1OC)-c1cc(OC)c(OC)cc1C(CN(C)C)C2 (configuration not stated) | > 10 µM | > 10 µM
22 | O=C1c2ccccc2C(=O)c2c(/C=C\N3CCCCC3)ccnc21 | – | 31.8 µM
23 | C=C1C[C@H](O)[C@H](Br)C(C)(C)[C@@]12CCC(C)=C(Cl)C2 | 0.838 µM | 4.04 µM
24 | O=C(NC1CCCCC1)NS(=O)(=O)c1ccc(N2N=C3c4ccccc4CC3C2c2ccc(Cl)cc2)cc1 (configuration not stated) | – | 9.2 µM
25 | c1ccc(-c2n(Cc3ccc4ccccc4n3)cc[n+]2Cc2ccc3ccccc3c2)cc1 | 1.16 µM | 4.79 µM
26 | C[C@@H]1CC[C@H]2C(C)(C)[C@H]3C[C@@]12CC[C@@]3(C)O | – | > 100 µM
27 | CC(C)(C)[Si](C)(C)OC1[C@@H](O[Si](C)(C)C(C)(C)C)[C@@H](CNC(=O)NC(=O)C(F)(F)F)O[C@H]1n1cnc2c(NC(=O)Nc3ccccc3)ncnc21 (some centres not stated) | 6.34 µM | 13 µM
28 | CCOC(=O)n1cc(C2=C(c3ccc(OC)c(OC)c3)COC2=O)c2ccccc21 | 0.0226 µM | 0.139 µM
29 | CC(=C(c1ccc(OCCN2CCCCC2)cc1)c1ccc(OCCN2CCCCC2)cc1)c1ccc(Cl)cc1 | 0.386 µM | 0.755 µM
30 | C=CC(=O)Nc1cc(Nc2nccc(-c3cn(C)c4ccccc34)n2)c(OC)cc1N(C)CCN(C)C | 1.11 µM and 1.48 µM | 3.25 µM and 4.12 µM
31 | C=C1C(=O)O[C@H]2[C@H]1CC/C(CNC(=O)c1cc3ccccc3[nH]1)=C\CC[C@@]1(C)O[C@@H]21 | 3.15 µM | 6.69 µM
32 | Cc1cc2c(cc1C)[n+](=O)c(C(=O)c1ccccc1)c(C(F)F)n2[O-] | 24.5 µM | 91.1 µM
